# Measured values as given in publication PMC6152123, “Sites for Dynamic Protein-Carbohydrate Interactions of O- and C-Linked Mannosides on the E. coli FimH Adhesin” (Molecules : A Journal of Synthetic Chemistry and Natural …, 2017).
# Where two headings read alike, the source gives them in different places.
# Assays:
# FimH = conditions: read-out: Kd ITC (converted), cited from earlier work
# FimH lectin domain [1] = biological target: T1, FimH lectin domain (Escherichia coli, UniProt P08191); experiment: biochemical; type: binding, E. coli strain J96; conditions: for fold by which inhibition potential exceeds parent 115: Table 5
# T1 sequence (P08191 22-179 limits assumed): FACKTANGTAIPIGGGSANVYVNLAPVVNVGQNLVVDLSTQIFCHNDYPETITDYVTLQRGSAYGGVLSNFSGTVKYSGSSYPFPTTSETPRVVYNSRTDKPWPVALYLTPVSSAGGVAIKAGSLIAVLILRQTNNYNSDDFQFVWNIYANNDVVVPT
# FimH lectin domain [2] = biological target: T1, FimH lectin domain; conditions: cited from earlier work
# [3] = Figure S19, fit of solution affinity model to inhibition curve
# [4] = Kd SPR (nM), solution affinity by SPR competition, Tables 1-3
# [5] = Kd (nM), Table 4, SPR detection, sulfonamide and amide spacers
# [6] = Kd (nM), Table 5, SPR, C-linked mannopyranosides
# [7] = Table 5, SPR, C-linked mannopyranosides
smiles,measurement,setting,value
"CCCCO[C@H]1O[C@H](CO)[C@@H](O)[C@H](O)[C@@H]1O [Compound 4, reference compound]",Kd,FimH; Tables 1-3,156 nM
"CCCCCCCCO[C@H]1O[C@H](CO)[C@@H](O)[C@H](O)[C@@H]1O [Compound 5a, octyl α-D-mannopyranoside, reference compound]",KA,FimH lectin domain [1]; [3],46550590.5 M⁻¹
same,Kd,"FimH lectin domain [1]; KD(M), Figure S19, fit of solution affinity model to inhibition curve",2.15e-08 M
same,Kd,"FimH lectin domain [2]; read-out: Kd SPR, solution affinity by SPR",21 ± 0.2 nM
OC[C@H]1O[C@H](OC/C=C/c2ccccc2)[C@@H](O)[C@@H](O)[C@@H]1O [Compound 22],Kd,FimH lectin domain [1]; [4],5.3e-08 ± 7.5e-09 M
OC[C@H]1O[C@H](OC/C=C/c2ccc(-c3ccccc3)cc2)[C@@H](O)[C@@H](O)[C@@H]1O [Compound 23],Kd,FimH lectin domain [1]; [4],3e-09 ± 1.1e-09 M
OC[C@H]1O[C@H](OC/C=C/c2ccccc2-c2ccccc2)[C@@H](O)[C@@H](O)[C@@H]1O [Compound 24],Kd,FimH lectin domain [1]; [4],4.3e-09 ± 8e-10 M
OC[C@H]1O[C@H](OC/C=C/c2cccc3ccccc23)[C@@H](O)[C@@H](O)[C@@H]1O [Compound 25],Kd,FimH lectin domain [1]; [4],5e-09 ± 1.4e-09 M
same,Kd,FimH; Tables 1-3,71 nM
OC[C@H]1O[C@H](OCCCc2ccccc2)[C@@H](O)[C@@H](O)[C@@H]1O [Compound 26],Kd,FimH lectin domain [1]; [4],5.9e-08 ± 8.5e-09 M
OC[C@H]1O[C@H](OCCCc2ccc(-c3ccccc3)cc2)[C@@H](O)[C@@H](O)[C@@H]1O [Compound 27],Kd,FimH lectin domain [1]; [4],1e-08 ± 2e-10 M
same,Kd,FimH; Tables 1-3,1.5 nM
OC[C@H]1O[C@H](OCCCc2ccccc2-c2ccccc2)[C@@H](O)[C@@H](O)[C@@H]1O [Compound 28],Kd,FimH lectin domain [1]; [4],1.3e-08 ± 1.7e-09 M
OC[C@H]1O[C@H](OCCCc2cccc3ccccc23)[C@@H](O)[C@@H](O)[C@@H]1O [Compound 29],Kd,FimH lectin domain [1]; [4],2.2e-08 ± 3e-09 M
OC[C@H]1O[C@H](OCCCSCc2ccccc2)[C@@H](O)[C@@H](O)[C@@H]1O [Compound 35],Kd,FimH lectin domain [1]; [4],1.6e-08 ± 2.4e-09 M
CCCCSCCCO[C@H]1O[C@H](CO)[C@@H](O)[C@H](O)[C@@H]1O [Compound 36],Kd,FimH lectin domain [1]; [4],2.2e-08 ± 2.7e-09 M
CCCSCCCO[C@H]1O[C@H](CO)[C@@H](O)[C@H](O)[C@@H]1O [Compound 37],Kd,FimH lectin domain [1]; [4],1.4e-08 ± 5e-09 M
CCSCCCO[C@H]1O[C@H](CO)[C@@H](O)[C@H](O)[C@@H]1O [Compound 38],Kd,FimH lectin domain [1]; [4],1.4e-08 ± 7.6e-09 M
CC(C)SCCCO[C@H]1O[C@H](CO)[C@@H](O)[C@H](O)[C@@H]1O [Compound 39],Kd,FimH lectin domain [1]; [4],1.1e-08 ± 6.1e-09 M
C#CCO[C@H]1O[C@H](CO)[C@@H](O)[C@H](O)[C@@H]1O [Compound 41],Kd,FimH lectin domain [1]; [4],4.9e-07 ± 5.5e-08 M
OC[C@H]1O[C@H](OCC#Cc2ccccc2)[C@@H](O)[C@@H](O)[C@@H]1O [Compound 50],Kd,FimH lectin domain [1]; [4],1.68e-07 ± 1.5e-08 M
OC[C@H]1O[C@H](OCC#Cc2ccc(-c3ccccc3)cc2)[C@@H](O)[C@@H](O)[C@@H]1O [Compound 51],Kd,FimH lectin domain [1]; [4],4.05e-07 ± 2.4e-08 M
OC[C@H]1O[C@H](OCC#Cc2ccccc2-c2ccccc2)[C@@H](O)[C@@H](O)[C@@H]1O [Compound 52],Kd,FimH lectin domain [1]; [4],2.25e-06 ± 2.91e-07 M
OC[C@H]1O[C@H](OCC#Cc2cccc3ccccc23)[C@@H](O)[C@@H](O)[C@@H]1O [Compound 53],Kd,FimH lectin domain [1]; [4],1.2e-07 ± 1.8e-08 M
OC[C@H]1O[C@H](OCC#Cc2cccs2)[C@@H](O)[C@@H](O)[C@@H]1O [Compound 54],Kd,FimH lectin domain [1]; [4],1.33e-07 ± 3.1e-08 M
OC[C@H]1O[C@H](OCC#Cc2cccnc2)[C@@H](O)[C@@H](O)[C@@H]1O [Compound 55],Kd,FimH lectin domain [1]; [4],8.3e-08 ± 5.6e-09 M
COc1ccc(C#CCO[C@H]2O[C@H](CO)[C@@H](O)[C@H](O)[C@@H]2O)cc1 [Compound 56],Kd,FimH lectin domain [1]; [4],5.3e-08 ± 2.3e-09 M
O=[N+]([O-])c1ccc(C#CCO[C@H]2O[C@H](CO)[C@@H](O)[C@H](O)[C@@H]2O)cc1 [Compound 57],Kd,FimH lectin domain [1]; [4],8.16e-07 ± 1.05e-07 M
OCC#Cc1ccc(O[C@H]2O[C@H](CO)[C@@H](O)[C@H](O)[C@@H]2O)cc1 [Compound 61],Kd,"FimH lectin domain [1]; Kd SPR (nM), Table S2",6.9e-09 ± 1e-09 M
same,Kd,FimH lectin domain [1]; [4],3.69e-08 ± 3e-09 M
COCC#Cc1ccc(O[C@H]2O[C@H](CO)[C@@H](O)[C@H](O)[C@@H]2O)cc1 [Compound 62],Kd SPR (nM),FimH lectin domain [1]; Table S2,nf
same,Kd SPR (nM),"FimH lectin domain [1]; solution affinity by SPR competition, Tables 1-3",nf *
same,Kd,FimH; Tables 1-3,59.5 ± 2.3 nM
O=S(=O)(NCCO[C@H]1O[C@H](CO)[C@@H](O)[C@H](O)[C@@H]1O)c1ccccc1 [Compound 70],Kd,FimH lectin domain [1]; [5],1.46e-07 ± 2.6e-08 M
O=[N+]([O-])c1ccc(S(=O)(=O)NCCO[C@H]2O[C@H](CO)[C@@H](O)[C@H](O)[C@@H]2O)cc1 [Compound 71],Kd,FimH lectin domain [1]; [5],4.08e-07 ± 5.2e-08 M
Cc1ccc(S(=O)(=O)NCCO[C@H]2O[C@H](CO)[C@@H](O)[C@H](O)[C@@H]2O)cc1 [Compound 72],Kd,FimH lectin domain [1]; [5],1.68e-07 ± 6.4e-08 M
CC(C)(C)c1ccc(S(=O)(=O)NCCO[C@H]2O[C@H](CO)[C@@H](O)[C@H](O)[C@@H]2O)cc1 [Compound 73],Kd,FimH lectin domain [1]; [5],1.22e-07 ± 1.1e-08 M
CC(C)c1cc(C(C)C)c(S(=O)(=O)NCCO[C@H]2O[C@H](CO)[C@@H](O)[C@H](O)[C@@H]2O)c(C(C)C)c1 [Compound 74],Kd,FimH lectin domain [1]; [5],3.7e-08 ± 5e-09 M
O=S(=O)(NCCO[C@H]1O[C@H](CO)[C@@H](O)[C@H](O)[C@@H]1O)c1cccc2ccccc12 [Compound 75],Kd,FimH lectin domain [1]; [5],1.48e-07 ± 1.8e-08 M
C=CC[C@H]1O[C@H](CO)[C@@H](O)[C@H](O)[C@@H]1O [Compound 78],Kd,FimH lectin domain [1]; [6],1.18e-07 ± 2e-08 M
O=C(C[C@H]1O[C@H](CO)[C@@H](O)[C@H](O)[C@@H]1O)Nc1ccccc1 [Compound 91],Kd,FimH lectin domain [1]; [5],3.72e-07 ± 2.6e-08 M
O=C(C[C@H]1O[C@H](CO)[C@@H](O)[C@H](O)[C@@H]1O)NCc1ccccc1 [Compound 92],Kd,FimH lectin domain [1]; [5],3.97e-07 ± 8.3e-08 M
O=C(C[C@H]1O[C@H](CO)[C@@H](O)[C@H](O)[C@@H]1O)NCCCc1ccccc1 [Compound 93],Kd,FimH lectin domain [1]; [5],1.05e-07 ± 4.4e-08 M
same,fold rise of FimH inhibitory capacity versus 91 and 92,FimH lectin domain [1]; SPR Kd,4 fold
CC(=O)Nc1ccc(NC(=O)C[C@H]2O[C@H](CO)[C@@H](O)[C@H](O)[C@@H]2O)cc1 [Compound 94],Kd,FimH lectin domain [1]; [5],2.27e-07 ± 5.4e-08 M
O=C(C[C@H]1O[C@H](CO)[C@@H](O)[C@H](O)[C@@H]1O)Nc1ccc(O)cc1 [Compound 95],Kd,FimH lectin domain [1]; [5],3.28e-07 ± 6.3e-08 M
O=C(C[C@H]1O[C@H](CO)[C@@H](O)[C@H](O)[C@@H]1O)NCCc1ccc(O)cc1 [Compound 96],Kd,FimH lectin domain [1]; [5],9.7e-07 ± 3.82e-07 M
OC[C@H]1O[C@H](CCCSCc2ccccc2)[C@@H](O)[C@@H](O)[C@@H]1O [Compound 106],Kd,FimH lectin domain [1]; [4],2.5e-08 ± 6.3e-09 M
CCCCSCCC[C@H]1O[C@H](CO)[C@@H](O)[C@H](O)[C@@H]1O [Compound 107],Kd,FimH lectin domain [1]; [4],2.2e-08 ± 2.8e-09 M
CCCSCCC[C@H]1O[C@H](CO)[C@@H](O)[C@H](O)[C@@H]1O [Compound 108],Kd,FimH lectin domain [1]; [4],3.6e-08 ± 9e-09 M
CCSCCC[C@H]1O[C@H](CO)[C@@H](O)[C@H](O)[C@@H]1O [Compound 109],Kd,FimH lectin domain [1]; [4],7.8e-08 ± 5.6e-09 M
CC(C)SCCC[C@H]1O[C@H](CO)[C@@H](O)[C@H](O)[C@@H]1O [Compound 110],Kd,FimH lectin domain [1]; [4],3.2e-08 ± 4.1e-09 M
OC[C@H]1O[C@H](C/C=C/c2ccccc2)[C@@H](O)[C@@H](O)[C@@H]1O [Compound 115],Kd,FimH lectin domain [1]; [6],1.82e-07 ± 2.5e-08 M
same,fold more active than amide-linked analog 91,FimH lectin domain [1]; SPR Kd,2 fold
OC[C@H]1O[C@H](C/C=C/c2ccc(-c3ccccc3)cc2)[C@@H](O)[C@@H](O)[C@@H]1O [Compound 116],Kd,FimH lectin domain [1]; [6],1.7e-08 ± 3.5e-09 M
same,fold by which inhibition potential exceeds parent 115,FimH lectin domain [1]; SPR Kd,~4 fold
same,Kd,FimH; Table S2,58 ± 14 nM
OC[C@H]1O[C@H](C/C=C/c2ccccc2-c2ccccc2)[C@@H](O)[C@@H](O)[C@@H]1O [Compound 117],Kd,FimH lectin domain [1]; [6],6.9e-09 ± 5.7e-09 M
same,fold by which inhibition potential exceeds parent 115,FimH lectin domain [1]; SPR Kd,~26 fold
OC[C@H]1O[C@H](C/C=C/c2cccc3ccccc23)[C@@H](O)[C@@H](O)[C@@H]1O [Compound 118],Kd (nM),FimH lectin domain [1]; [7],nf
same,Kd SPR (nM),FimH lectin domain [1]; Table S2,nf
same,Kd,FimH; Table S2,23 ± 5.5 nM
OC[C@H]1O[C@H](CCCc2ccccc2)[C@@H](O)[C@@H](O)[C@@H]1O [Compound 119],Kd,FimH lectin domain [1]; [6],4.9e-08 ± 5.3e-09 M
OC[C@H]1O[C@H](CCCc2ccc(-c3ccccc3)cc2)[C@@H](O)[C@@H](O)[C@@H]1O [Compound 120],Kd (nM),FimH lectin domain [1]; [7],nf
same,Kd SPR (nM),FimH lectin domain [1]; Table S2,nf
OC[C@H]1O[C@H](CCCc2ccccc2-c2ccccc2)[C@@H](O)[C@@H](O)[C@@H]1O [Compound 121],Kd,FimH lectin domain [1]; [6],1.23e-07 ± 2.1e-08 M
OC[C@H]1O[C@H](CCCc2cccc3ccccc23)[C@@H](O)[C@@H](O)[C@@H]1O [Compound 122],Kd (nM),FimH lectin domain [1]; [7],nf
same,Kd SPR (nM),FimH lectin domain [1]; Table S2,nf
CCC[C@H]1O[C@H](CO)[C@@H](O)[C@H](O)[C@@H]1O [Compound 123],Kd,FimH lectin domain [1]; [6],2.66e-07 ± 2.6e-08 M
CCCCCCO[C@H]1O[C@H](CO)[C@@H](O)[C@H](O)[C@@H]1O [hexyl],Kd,"FimH lectin domain [2]; solution affinity by SPR, read-out: Kd SPR",10 nM
"CC(=O)N[C@H]1[C@H](O[C@H]2[C@H](O)[C@@H](NC(C)=O)C(O)O[C@@H]2CO)O[C@H](CO)[C@@H](O[C@@H]2O[C@H](CO[C@H]3O[C@H](CO)[C@@H](O)[C@H](O)[C@@H]3O)[C@@H](O)[C@H](O[C@H]3O[C@H](CO)[C@@H](O)[C@H](O)[C@@H]3O)[C@@H]2O)[C@@H]1O (stereo partly shown) [oligomannoside-3, reference compound]",KA,FimH lectin domain [1]; [3],49462067.1 M⁻¹
same,Kd,"FimH lectin domain [1]; Figure S19, fit of solution affinity model to inhibition curve, read-out: KD",2.02e-08 M
same,Kd,"FimH lectin domain [2]; highest-affinity natural epitope for FimH, Fab IC10 chip, read-out: Kd",20 nM
